Reference: BindingDB's records for doi:10.1016/s0960-894x(01)00014-2 (Rensselaer Polytechnic Institute, 2001)

experiment: Displacement of [3H]naltrindole from Opioid receptor delta 1 of guinea pig brain membranes

SMILES | Ki
C[C@H]1C2Cc3ccc(C(=O)Nc4ccccc4)cc3[C@@]1(C)CCN2CC1CC1 [3-cyclopropylmethyl-6,11-dimethyl-1,2,3,4,5,6-hexahydro-2,6-methano-benzo[d]azocine-8-carboxylic acid phenylamide] | 1400 nM
C[C@H]1C2Cc3ccc(C#N)cc3[C@@]1(C)CCN2CC1CC1 [(6S,11R)-3-Cyclopropylmethyl-6,11-dimethyl-1,2,3,4,5,6-hexahydro-2,6-methano-benzo[d]azocine-8-carbonitrile] | 2700 nM
C[C@@H]1[C@@H]2Cc3ccc(C(N)=O)cc3[C@]1(C)CCN2CC1CC1 [(6S,11R)-3-Cyclopropylmethyl-6,11-dimethyl-1,2,3,4,5,6-hexahydro-2,6-methano-benzo[d]azocine-8-carboxylic acid amide] | 570 nM
C[C@H]1[C@H]2Cc3ccc(C(N)=O)cc3[C@@]1(C)CCN2CC1CC1 [(6S,11R)-3-Cyclopropylmethyl-6,11-dimethyl-1,2,3,4,5,6-hexahydro-2,6-methano-benzo[d]azocine-8-carboxylic acid amide] | 2.6 nM
C[C@H]1C2Cc3ccc(C(=O)N(C)C)cc3[C@@]1(C)CCN2CC1CC1 [(6S,11R)-3-Cyclopropylmethyl-6,11-dimethyl-1,2,3,4,5,6-hexahydro-2,6-methano-benzo[d]azocine-8-carboxylic acid dimethylamide] | > 35000 nM
COC(=O)c1ccc2c(c1)[C@@]1(C)CCN(CC3CC3)C(C2)[C@@H]1C [(6S,11R)-3-Cyclopropylmethyl-6,11-dimethyl-1,2,3,4,5,6-hexahydro-2,6-methano-benzo[d]azocine-8-carboxylic acid methyl ester] | 59 nM
CNC(=O)c1ccc2c(c1)[C@@]1(C)CCN(CC3CC3)C(C2)[C@@H]1C [(6S,11R)-3-Cyclopropylmethyl-6,11-dimethyl-1,2,3,4,5,6-hexahydro-2,6-methano-benzo[d]azocine-8-carboxylic acid methylamide] | 63 nM
C[C@H]1C2Cc3ccc(C(=O)O)cc3[C@@]1(C)CCN2CC1CC1 [(6S,11R)-3-Cyclopropylmethyl-6,11-dimethyl-1,2,3,4,5,6-hexahydro-2,6-methano-benzo[d]azocine-8-carboxylic acid] | 320 nM
